This note sets out measurements from paper PMC10419416, “Fighting Pseudomonas aeruginosa Infections: Antibacterial and Antibiofilm Activity of D-Q53 CecB, a Synthetic Analog of a Silkworm Natural Cecropin B Variant” (International Journal of Molecular Sciences, 2023).

One data set concerns T1, P. aeruginosa elastase.
T1 construct: purchased Elastin Products Company
As to the kind of experiment: Enzymatic digestion with P. aeruginosa elastase, RP-HPLC. The format is in vitro ADME. The conditions noted are these: isolated enzyme elastase; peptide 1 mg/mL in 10 mM Tris-HCl pH 7.5, 20 U P. aeruginosa elastase, 37 °C, 30 min, RP-HPLC C18 peak integration; read-out: % of full-length peptide. How it is done: L- and D-Q53 CecB peptides, as well as the human LL-37 peptide (Merck, Burlington, MA, USA), were dissolved in 10 mM Tris-HCl, pH 7.5, at a final concentration of 1 mg/mL. Subsequently, 120 μL of each peptide solution were incubated at 37 °C with 20 U of human leukocyte elastase (Merck) or P. aeruginosa elastase (Elastin Products Company, Owensville, MO, USA) and 5 μL of 10 mM Tris-HCl, pH 7.5. At given time intervals (30, 60, 120, and 300 min), a volume corresponding to 30 μg of each peptide was diluted in 70 μL of 1% trifluoroacetic acid (TFA) to stop the reaction. Peptide suspensions,v without any enzyme (undigested controls), were processed in parallel. Each solution was analyzed by RP-HPLC, using a Phenomenex LC C18 analytical column (300 Å, […], 250 × 4.6 mm; Phenomenex, Torrance, CA, USA) and a Widepore C18 security guard cartridge (4 × 3.0 mm; Phenomenex, Torrance, CA, USA), in a 30 min-linear Acetonitrile (ACN) gradient (from 0% to 40% for L- and D-Q53 CecB peptides; from 20% to 60% for LL-37). A Waters Alliance 2695 Separations Module connected to a 996 PDA (Waters, Milford, MA, USA) was employed for RP-HPLC.

Data set [1] relates to P. aeruginosa PAO1-L strain. Kind of data set: microbe, parasite or virus in culture. The format is cell-based, Pseudomonas aeruginosa. The note with it: value between parentheses, 24 h, 37 °C, plating on LBA. On the procedure: (§1) The following strains were used: P. aeruginosa ATCC 27853, ATCC 25668, and PAO1-L (Lausanne subline). All strains were grown at 37 °C in Luria Bertani (LB) medium or in Luria Bertani Agar (LBA) plates.
(§2) The antibacterial activities of L- and D-Q53 CecB were evaluated by determining (i) the MIC and (ii) the MBC. Tobramycin (Merck) was used as an antibiotic control. (i) An overnight (ON) bacterial culture was diluted to 1 × 10^6 cells/mL in LB medium. 50 µL/well were seeded in sterile polypropylene 96-well plates (Corning, Corning, NY, USA) and added with 50 µL LB medium, containing serial dilutions of each compound (final concentrations of L- and D-Q53 CecB peptides from 1.1 to 35.2 µM; final concentrations of tobramycin from 0.26 to 17 μM; each condition in triplicate). Microbial suspensions in the growing medium (positive control) and wells with only the medium (negative controls) were processed in parallel. Plates were incubated 24 h at 37 °C with agitation (300 rpm), and the absorbance was measured at 600 nm in a microplate reader. The MIC was considered as the lowest concentration determining a delta optical density at 600 nm (ΔOD600) equal to 0 ± 0.05. The ΔOD600 was determined by subtracting the OD600 recorded at time 0 from that obtained after 24 h. Each experiment was performed at least three times. […] For each sample, 100 μL of 1:10, 1:100, and 1:1000 dilutions were plated on LBA plates, and colonies were counted after 24 h at 37 °C. […] Each experiment was performed at least twice.

In data set [2] the test system is P. aeruginosa ATCC 25668, ATCC 27853, and PAO1-L strains. Kind of data set: microbe, parasite or virus in culture. The format is cell-based, Pseudomonas aeruginosa. The conditions noted are these: LB medium, 24 h, 37 °C, OD600; same value for all three strains; triplicate, at least three experiments. On the procedure: as §1, §2

No end group written: not given here.

With “RWKIFKKIEKMGRNIRDGIVKAGPAIQVLGSAKAI-NH2 [L-Q53 CecB]”, in the data set on P. aeruginosa elastase, the remaining at 0.5 h, 1 mg/mL is around 0.2%. The MBC in data set [1] was 4.40 µM. Besides, in data set [2], the MIC stood at 2.20 µM.
